Data from patent US11014911B2, “CDK2 inhibitors” (Pfizer Inc., priority 2019, dated 2021).

What was measured:
[1] = target: CDK2/Cyclin E1 full length (Homo sapiens (Human), UniProt P24941); test: CDK2/Cyclin E1 full length mobility shift assay; assay type: biochemical
GSK3β (H350L) = GSK3β (H350L) (Homo sapiens (Human), UniProt P49841); conditions: read-out: GSK3β Ki
Sequence of GSK3β (H350L) (P49841 whole entry, stated change not applied): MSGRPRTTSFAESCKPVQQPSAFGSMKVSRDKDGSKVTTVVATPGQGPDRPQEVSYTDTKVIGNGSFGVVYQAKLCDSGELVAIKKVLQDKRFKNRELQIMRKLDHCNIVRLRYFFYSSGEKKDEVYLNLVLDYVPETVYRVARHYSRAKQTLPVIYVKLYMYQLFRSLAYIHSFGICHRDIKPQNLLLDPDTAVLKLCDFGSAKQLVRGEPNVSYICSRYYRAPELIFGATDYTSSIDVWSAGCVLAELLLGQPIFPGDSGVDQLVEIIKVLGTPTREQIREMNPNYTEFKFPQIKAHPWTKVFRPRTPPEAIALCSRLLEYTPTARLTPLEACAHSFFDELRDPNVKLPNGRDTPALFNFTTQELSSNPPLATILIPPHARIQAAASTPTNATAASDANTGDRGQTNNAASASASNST
Protocol: The assay was initiated with the addition of ATP, following 15 minutes pre-incubation of enzyme and inhibitor at room temperature in the reaction mixture. The reaction was stopped after 30 minutes at room temperature by the addition of 50 μL of 80 mM EDTA.

Row | Structure (SMILES) | Ki [1] [nM] | Ki (GSK3β (H350L)) [nM]
1 | COc1ncc(CC(=O)Nc2cc([C@H]3CC[C@@H](OC(=O)NC4(C)CCOCC4)C3)[nH]n2)s1 [Example 509, (1R,3S)-3-(3-{[(2-methoxy-1,3-thiazol-5-yl)acetyl]amino}-1H-pyrazol-5-yl)cyclopentyl (4-methyltetrahydro-2H-pyran-4-yl)carbamate] | 0.5 | 30.2
2 | CC1(NC(=O)O[C@@H]2CC[C@H](c3cc(NC(=O)Cc4ccno4)n[nH]3)C2)CC1 [Example 128] | 0.15 | 55.4
3 | CC1(NC(=O)O[C@@H]2CC[C@H](c3cc(NC(=O)Cc4cc(Cl)ccn4)n[nH]3)C2)CC1 [Example 129] | 0.2 | 31.6
4 | Cc1ccc(CC(=O)Nc2cc([C@@H]3CC[C@H](OC(=O)N[C@H]4CC[C@H](O)CC4)C3)[nH]n2)cn1 [Example 548, (1S,3R)-3-(3-{[(6-methylpyridin-3-yl)acetyl]amino}-1H-pyrazol-5-yl)cyclopentyl (trans-4-hydroxycyclohexyl)carbamate] | 0.39 | 2.1
5 | CC[C@H](C)NC(=O)O[C@@H]1CC[C@H](c2cc(NC(=O)c3ccnn3C)n[nH]2)C1 [Example 42] | 0.05 | 34.4
6 | Cn1ccc(CC(=O)Nc2cc([C@H]3CC[C@@H](OC(=O)N4CCCC4(C)C)C3)[nH]n2)n1 [Example 136] | 0.22 | 8.22
7 | C[C@]1(O)CC[C@@H](NC(=O)O[C@H]2CC[C@@H](c3cc(NC(=O)Cc4ccc(F)cc4)n[nH]3)C2)CC1 [Example 560, (1S,3R)-3-(3-{[(4-fluorophenyl)acetyl]amino}-1H-pyrazol-5-yl)cyclopentyl (cis-4-hydroxy-4-methylcyclohexyl)carbamate] | 0.6 | 9.84
8 | Cc1cnc(CC(=O)Nc2cc([C@H]3CC[C@@H](OC(=O)NC(C)(C)C)C3)[nH]n2)cn1 [Example 299, (1R,3S)-3-(3-{[(5-methylpyrazin-2-yl)acetyl]amino}-1H-pyrazol-5-yl)cyclopentyl tert-butylcarbamate] | 0.26 | 29.9
9 | Cc1cc(CC(=O)Nc2cc([C@H]3CC[C@@H](OC(=O)N4[C@@H](C)COC[C@@H]4C)C3)[nH]n2)on1 [Example 648, (1R,3S)-3-(3-{[(3-methyl-1,2-oxazol-5-yl)acetyl]amino}-1H-pyrazol-5-yl)cyclopentyl (3S,5S)-3,5-dimethylmorpholine-4-carboxylate] | 0.47 | 12.2
10 | CCN(C)C(=O)O[C@@H]1CC[C@H](c2cc(NC(=O)Cc3ccc(OC)nc3)n[nH]2)C1 [Example 244, (1R,3S)-3-(3-{[(6-methoxypyridin-3-yl)acetyl]amino}-1H-pyrazol-5-yl)cyclopentyl ethyl(methyl)carbamate] | 0.57 | 3.7
11 | CC1(NC(=O)O[C@@H]2CC[C@H](c3cc(NC(=O)Cc4ccno4)n[nH]3)C2)CCCC1 [Example 117] | 0.14 | 15.9
12 | COc1ccc(CC(=O)Nc2cc([C@@H]3CC[C@H](OC(=O)N4C[C@@H](O)[C@@H]4C)C3)[nH]n2)cn1 [Example 614, (1S,3R)-3-(3-{[(6-methoxypyridin-3-yl)acetyl]amino}-1H-pyrazol-5-yl)cyclopentyl (2S,3R)-3-hydroxy-2-methylazetidine-1-carboxylate] | 1.66 | 6.58
13 | COc1cc(CC(=O)Nc2cc([C@@H]3CC[C@H](OC(=O)N[C@H]4CC[C@@](C)(O)CC4)C3)[nH]n2)ccn1 [Example 568, (1S,3R)-3-(3-{[(2-methoxypyridin-4-yl)acetyl]amino}-1H-pyrazol-5-yl)cyclopentyl (cis-4-hydroxy-4-methylcyclohexyl)carbamate] | 0.41 | 5.12
14 | CC[C@H](C)NC(=O)O[C@@H]1CC[C@H](c2cc(NC(=O)Cc3ccccc3S(=O)(=O)CC)n[nH]2)C1 [Example 40] | 0.24 | 64.5
15 | CCN(C)C(=O)O[C@@H]1CC[C@H](c2cc(NC(=O)Cc3ccc(C)nc3)n[nH]2)C1 [Example 237, (1R,3S)-3-(3-{[(6-methylpyridin-3-yl)acetyl]amino}-1H-pyrazol-5-yl)cyclopentyl ethyl(methyl)carbamate] | 0.64 | 5.23
16 | CC[C@H](C)NC(=O)O[C@@H]1CC[C@H](c2cc(NC(=O)Cc3cnc(C)cn3)n[nH]2)C1 [Example 34] | 0.33 | 31.2
17 | CC[C@H](C)CNC(=O)O[C@@H]1CC[C@H](c2cc(NC(=O)Cc3cnc(C)s3)n[nH]2)C1 [Example 417, (1R,3S)-3-(3-{[(2-methyl-1,3-thiazol-5-yl)acetyl]amino}-1H-pyrazol-5-yl)cyclopentyl [(2S)-2-methylbutyl]carbamate] | 0.81 | 12.6
18 | CCCNC(=O)O[C@@H]1CC[C@H](c2cc(NC(=O)Cc3ccccc3S(=O)(=O)CC)n[nH]2)C1 [Example 205, (1R,3S)-3-[3-({[2-(ethylsulfonyl)phenyl]-acetyl}amino)-1H-pyrazol-5-yl]cyclopentyl propylcarbamate] | 0.76 | 97.7
19 | C[C@H]1C[C@H](C)N1C(=O)O[C@@H]1CC[C@H](c2cc(NC(=O)Cc3cnn(C)c3)n[nH]2)C1 [Example 605, (1R,3S)-3-(3-{[(1-methyl-1H-pyrazol-4-yl)acetyl]amino}-1H-pyrazol-5-yl)cyclopentyl (2S,4S)-2,4-dimethylazetidine-1-carboxylate] | 0.32 | 9.89
20 | CC[C@H](C)NC(=O)O[C@@H]1CC[C@H](c2cc(NC(=O)Cc3ccc(C)cc3S(C)(=O)=O)n[nH]2)C1 [Example 45] | 0.11 | 61.4
21 | COCc1cc(C(=O)Nc2cc([C@H]3CC[C@@H](OC(=O)NC(C)(C)C)C3)[nH]n2)n(C)n1 [Example 111] | 0.38 | 772
22 | Cc1coc(CC(=O)Nc2cc([C@H]3CC[C@@H](OC(=O)N[C@@H](C)CC(F)(F)F)C3)[nH]n2)n1 [Example 93] | 0.22 | 7.64
23 | CCCNC(=O)O[C@@H]1CC[C@H](c2cc(NC(=O)Cc3ccc(OC)cn3)n[nH]2)C1 (stereo in doubt) [Example 187, (1R,3S)-3-(3-{[(5-methoxypyridin-2-yl)acetyl]amino}-1H-pyrazol-5-yl)cyclopentyl propylcarbamate] | 4.59 | 23.9
24 | CC(C)NC(=O)O[C@@H]1CC[C@H](c2cc(NC(=O)Cc3ccc4c(cnn4C)c3)n[nH]2)C1 [Example 55] | 0.1 | 10.4
25 | COc1cccc(CC(=O)Nc2cc([C@H]3CC[C@@H](OC(=O)NC4(C)CC4)C3)[nH]n2)n1 [Example 434, (1R,3S)-3-(3-{[(6-methoxypyridin-2-yl)acetyl]amino}-1H-pyrazol-5-yl)cyclopentyl (1-methylcyclopropyl)carbamate] | 0.48 | 39.8
26 | CCCNC(=O)O[C@H]1CC[C@@H](c2cc(NC(=O)c3ccc(OC)nc3)n[nH]2)C1 [Example 182, (1S,3R)-3-(3-{[(6-methoxypyridin-3-yl)carbonyl]amino}-1H-pyrazol-5-yl)cyclopentyl propylcarbamate] | 0.82 | 90.6
27 | CCCNC(=O)O[C@@H]1CC[C@H](c2cc(NC(=O)Cc3cnc(OC)s3)n[nH]2)C1 [Example 190, (1R,3S)-3-(3-{[(2-methoxy-1,3-thiazol-5-yl)acetyl]amino}-1H-pyrazol-5-yl)cyclopentyl propylcarbamate] | 0.81 | 26.1
